Calls of active or inactive are those of the source. The calls are words filed in the database; no cut-off is given here.
What was measured:
[1] = molecular target: Poly [ADP-ribose] polymerase 1 (Homo sapiens, UniProt P09874); test: Inhibition of PARP1 (unknown origin) incubated for 1 hr by ELISA analysis
MDA-MB-436 = test: Antiproliferative activity against human MDA-MB-436 BRCA1-/- cells assessed as inhibition of cell growth incubated for 7 days by CCK-8 assay; format: functional, cell-based; conditions: MDA-MB-436, 168 h
CAPAN-1 [2] = test: Antiproliferative activity against human CAPAN-1 BRCA2-/- cells assessed as inhibition of cell growth incubated for 7 days by CCK-8 assay; format: functional, cell-based; conditions: CAPAN-1, 168 h
[3] = tested on: Olaparib-resistant CAPAN-1; test: Antiproliferative activity against human Olaparib-resistant CAPAN-1 cells assessed as inhibition of cell growth incubated for 7 days by CCK-8 assay; format: functional, cell-based; conditions: Olaparib-resistant CAPAN-1, 168 h
[4] = Antiproliferative activity against human Talazoparib-resistant CAPAN-1 cells assessed as inhibition of cell growth incubated for 7 days by CCK-8 assay; format: functional, cell-based; conditions: CAPAN-1, 168 h
[5] = Antiproliferative activity against human Simmiparib-resistant CAPAN-1 cells assessed as inhibition of cell growth incubated for 7 days by CCK-8 assay; format: functional, cell-based; conditions: CAPAN-1, 168 h
[6] = molecular target: Voltage-gated inwardly rectifying potassium channel KCNH2 (Homo sapiens, UniProt Q12809); test: Inhibition of hERG; format: toxicity
CAPAN-1 [7] = test: Induction of DNA double strand breaks in human CAPAN-1 cells assessed as gamma-H2AX foci formation at 0.1 to 1 uM incubated for 24 hrs by DAPI staining based confocal microscopic analysis; format: functional, cell-based; conditions: dose 0.1-1 µM
CAPAN-1 [8] = test: Induction of DNA double strand breaks in human CAPAN-1 cells assessed as effect on RPA32 phosphorylation at 0.1 to 1 uM incubated for 24 hrs by DAPI staining based confocal microscopic analysis; format: functional, cell-based; conditions: dose 0.1-1 µM
[9] = tested on: Olaparib-resistant CAPAN-1; test: Induction of DNA double strand breaks in human Olaparib-resistant CAPAN-1 cells assessed as gamma-H2AX foci formation at 0.1 to 1 uM incubated for 24 hrs by DAPI staining based confocal microscopic analysis; format: functional, cell-based; conditions: dose 0.1-1 µM
[10] = tested on: Olaparib-resistant CAPAN-1; test: Induction of DNA double strand breaks in human Olaparib-resistant CAPAN-1 cells assessed as effect on RPA32 phosphorylation at 0.1 to 1 uM incubated for 24 hrs by DAPI staining based confocal microscopic analysis; format: functional, cell-based; conditions: dose 0.1-1 µM
CAPAN-1 [11] = test: Induction of DNA double strand breaks in human CAPAN-1 cells assessed as increase in gamma-H2AX level at 0.1 to 1 uM incubated for 24 hrs by Western blot analysis; format: functional, cell-based; conditions: dose 0.1-1 µM
CAPAN-1 [12] = test: Induction of DNA double strand breaks in human CAPAN-1 cells assessed as increase in RPA32 phosphorylation at 0.1 to 1 uM incubated for 24 hrs by Western blot analysis; format: functional, cell-based; conditions: dose 0.1-1 µM
CAPAN-1 [13] = test: Induction of DNA double strand breaks in human CAPAN-1 cells assessed as increase in Chk1 phosphorylation at 0.1 to 1 uM incubated for 24 hrs by Western blot analysis; format: functional, cell-based; conditions: dose 0.1-1 µM
CAPAN-1 [14] = test: Induction of DNA double strand breaks in human CAPAN-1 cells assessed as increase in p-ATM foci formation at 0.1 to 1 uM incubated for 24 hrs by DAPI staining based confocal microscopic analysis; format: functional, cell-based; conditions: dose 0.1-1 µM
[15] = tested on: Olaparib-resistant CAPAN-1; test: Induction of DNA double strand breaks in Olaparib-resistant human CAPAN-1 cells assessed as increase in p-ATM foci formation at 0.1 to 1 uM incubated for 24 hrs by DAPI staining based confocal microscopic analysis; format: functional, cell-based; conditions: dose 0.1-1 µM
CAPAN-1 [16] = test: Induction of cell cycle arrest in human CAPAN-1 cells assessed as accumulation of cell at G2/M phase at 0.1 uM incubated for 24 hrs by […] staining based flow cytometry analysis; format: functional
CAPAN-1 [17] = test: Induction of cell cycle arrest in human CAPAN-1 cells assessed as accumulation of cell at S phase at 0.5 to 1 uM incubated for 24 hrs by […] staining based flow cytometry analysis; format: functional; conditions: dose 0.5-1 µM
[18] = tested on: Olaparib-resistant CAPAN-1; test: Induction of cell cycle arrest in human Olaparib-resistant CAPAN-1 cells assessed as accumulation of cell at S phase at 0.5 to 1 uM incubated for 24 hrs by […] staining based flow cytometry analysis; format: functional; conditions: dose 0.5-1 µM
CAPAN-1 [19] = test: Induction of apoptosis in human CAPAN-1 cells assessed as early apoptotic cells at 0.1 uM incubated for 48 hrs by Annexin-V/PI staining based flow cytometry analysis (reference value: 10.1%); format: functional
CAPAN-1 [20] = test: Induction of apoptosis in human CAPAN-1 cells assessed as late apoptotic cells at 0.1 uM incubated for 48 hrs by Annexin-V/PI staining based flow cytometry analysis (reference value: 4.95%); format: functional
CAPAN-1 [21] = test: Induction of apoptosis in human CAPAN-1 cells assessed as early apoptotic cells at 0.5 uM incubated for 48 hrs by Annexin-V/PI staining based flow cytometry analysis (reference value: 10.1%); format: functional
CAPAN-1 [22] = test: Induction of apoptosis in human CAPAN-1 cells assessed as late apoptotic cells at 0.5 uM incubated for 48 hrs by Annexin-V/PI staining based flow cytometry analysis (reference value: 4.95%); format: functional
CAPAN-1 [23] = test: Induction of apoptosis in human CAPAN-1 cells assessed as early apoptotic cells at 1 uM incubated for 48 hrs by Annexin-V/PI staining based flow cytometry analysis (reference value: 10.1%); format: functional
CAPAN-1 [24] = test: Induction of apoptosis in human CAPAN-1 cells assessed as late apoptotic cells at 1 uM incubated for 48 hrs by Annexin-V/PI staining based flow cytometry analysis (reference value: 4.95%); format: functional
[25] = tested on: Olaparib-resistant CAPAN-1; test: Induction of apoptosis in human Olaparib-resistant CAPAN-1 cells assessed as early apoptotic cells at 0.1 uM incubated for 48 hrs by Annexin-V/PI staining based flow cytometry analysis (reference value: 8.50%); format: functional
[26] = tested on: Olaparib-resistant CAPAN-1; test: Induction of apoptosis in human Olaparib-resistant CAPAN-1 cells assessed as late apoptotic cells at 0.1 uM incubated for 48 hrs by Annexin-V/PI staining based flow cytometry analysis (reference value: 3.67%); format: functional
[27] = tested on: Olaparib-resistant CAPAN-1; test: Induction of apoptosis in human Olaparib-resistant CAPAN-1 cells assessed as early apoptotic cells at 0.5 uM incubated for 48 hrs by Annexin-V/PI staining based flow cytometry analysis (reference value: 8.50%); format: functional
[28] = tested on: Olaparib-resistant CAPAN-1; test: Induction of apoptosis in human Olaparib-resistant CAPAN-1 cells assessed as late apoptotic cells at 0.5 uM incubated for 48 hrs by Annexin-V/PI staining based flow cytometry analysis (reference value: 3.67%); format: functional
[29] = tested on: Olaparib-resistant CAPAN-1; test: Induction of apoptosis in human Olaparib-resistant CAPAN-1 cells assessed as early apoptotic cells at 1 uM incubated for 48 hrs by Annexin-V/PI staining based flow cytometry analysis (reference value: 8.50%); format: functional
[30] = tested on: Olaparib-resistant CAPAN-1; test: Induction of apoptosis in human Olaparib-resistant CAPAN-1 cells assessed as late apoptotic cells at 1 uM incubated for 48 hrs by Annexin-V/PI staining based flow cytometry analysis (reference value: 3.67%); format: functional

Sequence of Poly [ADP-ribose] polymerase 1 (P09874 whole entry): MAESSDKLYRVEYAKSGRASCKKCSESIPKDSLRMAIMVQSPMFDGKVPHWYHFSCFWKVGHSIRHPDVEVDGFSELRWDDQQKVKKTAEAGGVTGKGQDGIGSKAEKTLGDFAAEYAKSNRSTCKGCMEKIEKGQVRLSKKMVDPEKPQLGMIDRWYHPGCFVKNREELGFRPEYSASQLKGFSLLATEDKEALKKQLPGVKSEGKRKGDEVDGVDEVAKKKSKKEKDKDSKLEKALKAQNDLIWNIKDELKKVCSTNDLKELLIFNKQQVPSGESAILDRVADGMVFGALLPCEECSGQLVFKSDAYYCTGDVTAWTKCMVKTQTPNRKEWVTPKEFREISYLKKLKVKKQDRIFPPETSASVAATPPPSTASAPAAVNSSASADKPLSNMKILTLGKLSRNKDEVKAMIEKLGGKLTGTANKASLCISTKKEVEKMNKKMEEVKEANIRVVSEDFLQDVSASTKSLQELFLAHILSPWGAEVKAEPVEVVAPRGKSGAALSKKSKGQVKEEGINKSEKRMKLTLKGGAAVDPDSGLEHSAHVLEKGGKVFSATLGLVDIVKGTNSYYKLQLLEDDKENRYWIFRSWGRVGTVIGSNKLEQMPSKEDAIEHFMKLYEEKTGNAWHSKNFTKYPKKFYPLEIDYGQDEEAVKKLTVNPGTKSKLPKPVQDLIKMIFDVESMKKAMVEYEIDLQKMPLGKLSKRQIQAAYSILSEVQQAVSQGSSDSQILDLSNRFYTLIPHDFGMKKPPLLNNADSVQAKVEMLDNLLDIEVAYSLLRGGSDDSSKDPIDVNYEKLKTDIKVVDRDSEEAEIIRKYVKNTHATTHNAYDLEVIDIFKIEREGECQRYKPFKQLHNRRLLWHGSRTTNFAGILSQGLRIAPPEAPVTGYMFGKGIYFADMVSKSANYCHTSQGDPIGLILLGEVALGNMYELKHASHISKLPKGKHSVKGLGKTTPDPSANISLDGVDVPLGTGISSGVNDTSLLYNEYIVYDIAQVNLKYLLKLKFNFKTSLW
Sequence of Voltage-gated inwardly rectifying potassium channel KCNH2 (Q12809 whole entry): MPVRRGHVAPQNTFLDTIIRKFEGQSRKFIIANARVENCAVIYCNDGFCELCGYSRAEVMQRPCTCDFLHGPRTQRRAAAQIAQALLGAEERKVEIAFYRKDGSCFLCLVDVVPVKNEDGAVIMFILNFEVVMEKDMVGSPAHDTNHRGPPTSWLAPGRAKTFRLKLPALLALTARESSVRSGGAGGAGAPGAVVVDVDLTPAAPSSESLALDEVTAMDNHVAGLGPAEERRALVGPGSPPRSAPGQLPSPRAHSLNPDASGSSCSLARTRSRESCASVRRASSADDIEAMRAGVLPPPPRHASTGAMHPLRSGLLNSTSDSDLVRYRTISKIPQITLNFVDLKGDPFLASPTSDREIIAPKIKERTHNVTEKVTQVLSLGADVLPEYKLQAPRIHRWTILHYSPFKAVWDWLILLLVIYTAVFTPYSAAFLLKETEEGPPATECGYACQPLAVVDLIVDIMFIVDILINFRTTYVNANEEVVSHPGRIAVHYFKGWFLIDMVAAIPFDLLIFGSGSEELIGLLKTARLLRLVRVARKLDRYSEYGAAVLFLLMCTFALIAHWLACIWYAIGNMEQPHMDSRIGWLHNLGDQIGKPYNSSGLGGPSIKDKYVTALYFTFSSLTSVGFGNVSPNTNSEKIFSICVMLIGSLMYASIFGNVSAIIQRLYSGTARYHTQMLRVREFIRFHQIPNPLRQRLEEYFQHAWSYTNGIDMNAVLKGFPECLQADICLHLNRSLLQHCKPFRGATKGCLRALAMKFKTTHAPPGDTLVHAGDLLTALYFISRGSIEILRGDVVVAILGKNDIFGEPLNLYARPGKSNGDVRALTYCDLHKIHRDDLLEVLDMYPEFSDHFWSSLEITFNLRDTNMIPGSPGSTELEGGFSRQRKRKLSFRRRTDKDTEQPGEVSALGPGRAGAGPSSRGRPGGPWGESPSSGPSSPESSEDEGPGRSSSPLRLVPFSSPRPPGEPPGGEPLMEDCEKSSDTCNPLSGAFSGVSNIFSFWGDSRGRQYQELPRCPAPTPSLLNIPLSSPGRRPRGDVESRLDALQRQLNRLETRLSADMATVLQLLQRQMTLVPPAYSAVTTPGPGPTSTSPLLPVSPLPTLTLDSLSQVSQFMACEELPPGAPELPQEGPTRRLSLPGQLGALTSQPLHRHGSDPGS

COc1cccc(-c2nnc3n2C(C)CN(C(=O)c2cc(Cc4n[nH]c(=O)c5ccccc45)ccc2F)C3)n1 (stereo unspecified)
IC50 [1]: 0.6 nM
IC50 (MDA-MB-436): < 0.3 nM
IC50 (CAPAN-1 [2]): < 0.3 nM
IC50 [3]: 0.3 nM
IC50 [4]: < 0.3 nM
IC50 [5]: 0.3 nM
IC50 [6]: 17500 nM
Activity (CAPAN-1 [7]): Active
Activity (CAPAN-1 [8]): Active
Activity [9]: Active
Activity [10]: Active
Activity (CAPAN-1 [11]): Active
Activity (CAPAN-1 [12]): Active
Activity (CAPAN-1 [13]): Active
Activity (CAPAN-1 [14]): Active
Activity [15]: Active
Activity (CAPAN-1 [16]): Active
Activity (CAPAN-1 [17]): Active
Activity [18]: Active
Activity (CAPAN-1 [19]): 37.9%
Activity (CAPAN-1 [20]): 17.7%
Activity (CAPAN-1 [21]): 40.7%
Activity (CAPAN-1 [22]): 42%
Activity (CAPAN-1 [23]): 41%
Activity (CAPAN-1 [24]): 43.9%
Activity [25]: 17.6%
Activity [26]: 4.6%
Activity [27]: 39.1%
Activity [28]: 29%
Activity [29]: 36.6%
Activity [30]: 30.7%
